Results on 14 molecules are retold here after patent publication US10463671B2, “Combination therapy for treating cancer” (Epizyme, Inc., priority 2013, dated 2019).

Marks after values point to notes of the source that are not given here.

Common to all, as to assay: Medium throughput combination proliferation assay (CellTiter-Glo, Chou-Talalay CI / potency shift)
For experiment [1], the system named is SU-DHL-10 cells. Particulars: for CI range (combination index): combination with Compound 44 at constant ratio, CI range above Fractional effect of 0.5; for IC50: read-out: Potency (IC50), SU-DHL-10 (GCB sub-type EZH2 Y646F), after 3 days of dosing; for IC50 / growth inhibition by the drug by itself: single agent; for Summary of Combinations with Compound 44: SU-DHL10 (EZH2 Mutant GCB), drug combined with Compound 44; for growth inhibition by the drug by itself: SU-DHL10 (EZH2 mutant).

For experiment [2], the system named is WSU-DLCL2 cells. Particulars: for IC50: Homo sapiens, WSUDLCL2, 72 h, read-out: Potency (IC50); for Summary of Combinations with Compound 44: WSU-DLCL2 (EZH2 Mutant GCB), drug combined with Compound 44; for growth inhibition by the drug by itself: WSU-DLCL2 (EZH2 mutant).
In experiment [3] the test system is SU-DHL-5 cells. The conditions noted are these: for IC50: Homo sapiens, SU-DHL-5, 72 h, read-out: Potency (IC50); for 1/α: combination with Compound 44.
For experiment [4], the system named is OCI-LY19 cells. The conditions noted are these: for IC50: Homo sapiens, OCI-LY19, 72 h, read-out: Potency (IC50); for 1/α: OCI-LY19, combination with Compound 44.
In experiment [5] the test system is Toledo cells. Particulars: for IC50: read-out: Potency (IC50), single agent, dosed for 5 days; for IC50 / 1/α: Toledo; for 1/α: combination with Compound 44; for Summary of Combinations with Compound 44: Toledo (EZH2 WT GCB), drug combined with Compound 44.
Experiment [6] has as its system DOHH2 cells. The conditions noted are these: for IC50: read-out: Potency (IC50), DOHH-2 (GCB sub-type WT EZH2), single agent, after 3 days of dosing; for 1/α: DOHH2, combination with Compound 44, data normalized to individual 6438 concentrations instead of DMSO; for Summary of Combinations with Compound 44: DOHH2 (EZH2 WT GCB), drug combined with Compound 44.
Experiment [7] concerns SU-DHL6 cells. The class given is cell-based. Particulars: SU-DHL6 (EZH2 Mutant GCB); drug combined with Compound 44.

Broadly, the IC50 is the concentration needed to halve the response being measured. With `CC1(C)CCC(CN2CCN(c3ccc(C(=O)NS(=O)(=O)c4ccc(NCC5CCOCC5)c([N+](=O)[O-])c4)c(Oc4cnc5[nH]ccc5c4)c3)CC2)=C(c2ccc(Cl)cc2)C1` [ABT-199], in experiment [1] (SU-DHL-10), the “CI range (combination index)” value was 1.2-1.4^e. For the same molecule, the IC50 was 3040 nM in experiment [1]; 1940 nM in experiment [2]; more than 10000 nM in experiment [3]; 53 nM in experiment [4]; 190 nM in experiment [5]; 77 nM in experiment [6]. Also, the results for the 1/α entry in experiment [3] (SU-DHL-5) and in experiment [4] were “No Effect” and 4.20, respectively.
For `CC(C)C[C@H](NC(=O)[C@H](Cc1ccccc1)NC(=O)c1cnccn1)B(O)O` [Bortezomib], the IC50 in experiment [1] stood at 8.6 nM; in experiment [2], 6.5 nM; in experiment [3] it was 4 nM; in experiment [4], 12 nM; in experiment [5], 4.3 nM; in experiment [6] it was 6.6 nM. In addition, the 1/α worked out at 1.67 in experiment [4], 0.96 in experiment [5] and 0.96 in experiment [6].
With `C[C@@H]1C[C@H]2[C@@H]3CCC4=CC(=O)C=C[C@]4(C)[C@@]3(F)[C@@H](O)C[C@]2(C)[C@@]1(O)C(=O)CO` [Dexamethasone], the 1/α is recorded as 3.7 in experiment [1] (SU-DHL-10, combination with Compound 44); 7.7 in experiment [4]; “No effect” in experiment [5]; 4.2 in experiment [6]. The IC50 in experiment [1] is more than 100 nM; in experiment [2], more than 10000 nM; in experiment [3], 3.4 nM; in experiment [4], 79 nM; in experiment [5] it was more than 100 nM; in experiment [6], 5.6 nM. In experiment [5], the “Summary of Combinations with Compound 44” value is “No effect”.
With `COc1cccc2c1C(=O)c1c(O)c3c(c(O)c1C2=O)C[C@@](O)(C(=O)CO)C[C@@H]3O[C@H]1C[C@H](N)[C@H](O)[C@H](C)O1` [Doxorubicin], the “Summary of Combinations with Compound 44” value is recorded as “Additive” in experiment [1]; “Synergy” in experiment [2]; “No effect” in experiment [5]; “Additive” in experiment [7]; “No effect” in experiment [6]. The “growth inhibition by the drug by itself” value in experiment [1] and in experiment [2] (single agent) was “concentration-dependent growth inhibition” each time.
With `CO[C@H]1C[C@@H]2CC[C@@H](C)[C@@](O)(O2)C(=O)C(=O)N2CCCC[C@H]2C(=O)O[C@H]([C@H](C)C[C@@H]2CC[C@@H](OCCO)[C@H](OC)C2)CC(=O)[C@H](C)/C=C(\C)[C@@H](O)[C@@H](OC)C(=O)[C@H](C)C[C@H](C)/C=C/C=C/C=C/1C` [Everolimus], the “Summary of Combinations with Compound 44” value in experiment [1] and in experiment [2] was “very strong synergy” in each case. In addition, the IC50 in experiment [1] stood at 0.854 nM; in experiment [2] it was 0.653 nM; in experiment [3], 0.72 nM; in experiment [5], 0.1 nM; in experiment [6] it was 0.13 nM. Moreover, the 1/α result in experiment [4] and in experiment [5] was “No effect” each time.
For `C=CC(=O)N1CCC[C@@H](n2nc(-c3ccc(Oc4ccccc4)cc3)c3c(N)ncnc32)C1` [Ibrutinib], the IC50 in experiment [1] is 1150 nM; in experiment [2], 278 nM; in experiment [3] it was 1330 nM; in experiment [4], more than 10000 nM; in experiment [5] it was more than 10000 nM; in experiment [6] it was 956 nM. The 1/α result is reported as “No effect” in experiment [4], “No effect” in experiment [5] and 0.67 in experiment [6].
For `CC[C@H](Nc1ncnc2[nH]cnc12)c1nc2cccc(F)c2c(=O)n1-c1ccccc1` [Idelalisib], the “Summary of Combinations with Compound 44” value in experiment [1] and in experiment [2] was “very strong synergy” each time. The IC50 was 8430 nM in experiment [1]; 2050 nM in experiment [2]; 2590 nM in experiment [3]; more than 10000 nM in experiment [4]; 9800 nM in experiment [5]; 2980 nM in experiment [6]. For the same molecule, the 1/α entry is given as “No effect” in experiment [4], 1.1^ in experiment [5] and 0.59 in experiment [6].
`NC1(c2ccc(-c3nc4ccn5c(=O)[nH]nc5c4cc3-c3ccccc3)cc2)CCC1` [MK-2206]: the “Summary of Combinations with Compound 44” value in experiment [1] and in experiment [2] was “very strong synergy” each time. The IC50 in experiment [1] stood at 275 nM; in experiment [2], 127 nM; in experiment [3], 162 nM; in experiment [4] it was 304 nM; in experiment [5], 95 nM; in experiment [6], 86 nM. In addition, the 1/α in experiment [4] came to 71.40; in experiment [6] it was 0.64.
Regarding `CC1(C)CCC(c2ccc(Cl)cc2)=C(CN2CCN(c3ccc(C(=O)NS(=O)(=O)c4ccc(N[C@H](CCN5CCOCC5)CSc5ccccc5)c(S(=O)(=O)C(F)(F)F)c4)cc3)CC2)C1` [Navitoclax], the IC50 in experiment [1] was more than 10000 nM; in experiment [2], 3540 nM; in experiment [3], more than 10000 nM; in experiment [4], 131 nM; in experiment [5] it was 590 nM; in experiment [6] it was 540 nM. Further, the 1/α result in experiment [3] (SU-DHL-5) was “No Effect”; in experiment [4] it was 6.60; in experiment [5], “No effect”.
`COC1=CC(c2cc3ccccc3[nH]2)=N/C1=C\c1[nH]c(C)cc1C` [Obatoclax]: the “CI range (combination index)” value in experiment [1] (SU-DHL-10) was 0.91-1.36^e; in experiment [2] (WSU-DLCL2, combination with Compound 44 at constant ratio, CI range above Fractional effect of 0.5), 1.10^e; in experiment [3] (SU-DHL-5, combination with Compound 44 at constant ratio, CI range above Fractional effect of 0.5), 1.26-1.61^e. Moreover, the IC50 in experiment [1] worked out at 19.5 nM; in experiment [2] it was 59 nM; in experiment [3] it was 9.8 nM; in experiment [4], 42 nM; in experiment [5], 96 nM; in experiment [6], 51 nM. Also, the 1/α in experiment [4] came to 1.50.
As for `COc1cc(Nc2ncc(F)c(Nc3ccc4c(n3)NC(=O)C(C)(C)O4)n2)cc(OC)c1OC` [Tamatinib], the “Summary of Combinations with Compound 44” value in experiment [1] and in experiment [2] was “very strong synergy” in each case. Moreover, the concentration for half-maximal inhibition (IC50) in experiment [1] is 2210 nM; in experiment [2], 3420 nM; in experiment [3] it was 3760 nM; in experiment [4], more than 10000 nM; in experiment [5], 3200 nM; in experiment [6], 1210 nM. Further, the 1/α result was “No effect” in experiment [4], “No effect” in experiment [5] and 0.81 in experiment [6].
For `CC(=O)Nc1cccc(-n2c(=O)n(C3CC3)c(=O)c3c(Nc4ccc(I)cc4F)n(C)c(=O)c(C)c32)c1` [Trametinib], the IC50 in experiment [1] is more than 10000 nM; in experiment [2] it was 8610 nM; in experiment [3], more than 10000 nM; in experiment [4] it was more than 10000 nM; in experiment [5] it was more than 10000 nM; in experiment [6] it was more than 10000 nM. The 1/α result in experiment [4] and in experiment [5] was “No effect” each time.
As to `CC[C@]1(O)C[C@H]2CN(CCc3c([nH]c4ccccc34)[C@@](C(=O)OC)(c3cc4c(cc3OC)N(C=O)[C@H]3[C@@](O)(C(=O)OC)[C@H](OC(C)=O)[C@]5(CC)C=CCN6CC[C@]43[C@@H]65)C2)C1` [Vincristine], the “Summary of Combinations with Compound 44” value was “Additive” in experiment [1]; “Combination benefit” in experiment [1] (listed as vincristine); “Additive” in experiment [2]; “Combination benefit” in experiment [2] (listed as vincristine); “No effect” in experiment [5]; “Additive” in experiment [7]. Moreover, the “Summary of Combinations with Compound 44” value in experiment [6] is reported as “No effect”. Further, the “growth inhibition by the drug by itself” value in experiment [1] and in experiment [2] (single agent) was “concentration-dependent growth inhibition” in each case.
Turning to “Rituximab: the antibody combined with chemotherapeutics in R-CHOP, targets cd-20”, the 1/α in experiment [2] (WSU-DLCL2, combination with Compound 44) amounted to 2.6. In experiment [2] (WSU-DLCL2, single agent, after 3 days of dosing), the “Potency (IC50), Rituximab” value is given as >10^a μg/ml.
